Reference: ChEMBL document CHEMBL3734735, “The effect of N-methylation on transition state mimetic inhibitors of the Plasmodium protease, plasmepsin V” (Medchemcomm, 2015)
Active and inactive are the calls of the source. The calls are words filed in the database; no cut-off is given here. Square brackets hold non-standard residues; d marks the D form. Peptide text beside a SMILES is read from it. * marks the point of attachment. Sta = CC(C)C[C@H](N)[C@@H](O)CC(=O)O; NHPhenethyl = c1ccc(CCN*)cc1; NMeV = CN[C@H](C(=O)O)C(C)C; Cbz = O=C(OCc1ccccc1)*

Assays:
Plasmepsin V = Plasmepsin V (Plasmodium falciparum (isolate 3D7), UniProt Q8I6Z5); experiment: Inhibition of HA-tagged transgenic Plasmodium falciparum plasmepsin 5 using DABCYL-RNKRTLAQKQ-E-EDANS as substrate after 120 mins by fluorescence plate reader analysis
Chain of Plasmepsin V (Q8I6Z5 whole entry): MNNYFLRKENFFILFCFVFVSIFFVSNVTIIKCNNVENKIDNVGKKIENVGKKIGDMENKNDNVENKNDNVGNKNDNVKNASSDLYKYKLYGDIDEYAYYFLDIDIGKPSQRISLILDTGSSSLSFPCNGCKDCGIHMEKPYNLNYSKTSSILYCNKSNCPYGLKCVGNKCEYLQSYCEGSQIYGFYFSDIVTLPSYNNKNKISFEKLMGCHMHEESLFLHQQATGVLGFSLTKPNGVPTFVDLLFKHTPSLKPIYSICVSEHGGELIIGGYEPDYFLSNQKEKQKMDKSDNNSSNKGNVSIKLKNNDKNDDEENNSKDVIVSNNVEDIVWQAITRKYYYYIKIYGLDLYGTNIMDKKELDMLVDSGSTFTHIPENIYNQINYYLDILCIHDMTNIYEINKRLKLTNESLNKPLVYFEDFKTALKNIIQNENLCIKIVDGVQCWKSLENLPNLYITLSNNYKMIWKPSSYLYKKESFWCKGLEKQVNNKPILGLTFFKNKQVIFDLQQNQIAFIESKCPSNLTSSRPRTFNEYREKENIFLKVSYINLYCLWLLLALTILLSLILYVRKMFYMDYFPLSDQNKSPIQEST

Plasmodium falciparum = experiment: Antiparasitic activity against early ring-stage of Plasmodium falciparum 3D7 infected in human erythrocytes assessed as inhibition of parasite viability after 72 hrs by flow cytometric analysis; type: functional, organism-based; conditions: 3D7, 72 h
HepG2 = experiment: Cytotoxicity against human HepG2 cells after 48 hrs by CellTiter Glo assay; type: cell-based; conditions: HepG2, 48 h
[1] = Stability in phosphate buffer at 5000 ng/ml at 37 degC at pH 7.4 measured over 24 hrs by LC-MS analysis in presence of porcine pancreatin; type: physicochemical; conditions: pig, pH 7.4, 24 h
Serum = experiment: Metabolic stability in human serum at 5000 ng/ml at 37 degC measured over 55 hrs by LC-MS analysis; type: ADME
[2] = molecular target: Plasmepsin V (Plasmodium falciparum (isolate 3D7)) (UniProt Q8I6Z5); experiment: Inhibition of plasmepsin 5 in trophozoite stage of transgenic Plasmodium falciparum infected in erythrocytes assessed as suppression of PEXEL processing of GFP-fused EMP3 at 20 uM after 5 hrs by Western blot analysis; type: cell-based
Chain of Plasmepsin V (Plasmodium falciparum (isolate 3D7)) (Q8I6Z5 whole entry, looked up, the tested form may be a part): as the sequence (Q8I6Z5 whole entry) above

Row | Compound | IC50 (Plasmepsin V) [µM] | Stability [1] | Stability (Serum) | inhibition [2] | EC50 (Plasmodium falciparum) [µM] | EC50 (HepG2) [µM]
1 | CCN(CC)CCCC(C)Nc1ccnc2cc(Cl)ccc12 (centres undefined) [CHLOROQUINE] |  |  |  |  | 0.01 | 
2 | CC(C)C[C@H](NC(=O)[C@@H](NC(=O)[C@H](CCCNC(=N)N)NC(=O)OCc1ccccc1)C(C)C)[C@@H](O)CC(=O)NCCc1ccccc1 (Cbz-Arg-Val-[Sta]-NHPhenethyl) | 0.026 |  |  | Active | 3.97 | > 50
3 | CC(C)C[C@H](NC(=O)[C@H](C)NC(=O)[C@H](CCCNC(=N)N)N(C)C(=O)OCc1ccccc1)[C@@H](O)CC(=O)NCCc1ccc(Cl)cc1 | 15.6 | Stable | Stable | inactive | 67.8 | > 50
4 | COc1cc([C@@H]2c3cc4c(cc3[C@@H](O[C@@H]3O[C@@H]5CO[C@@H](C)O[C@H]5[C@H](O)[C@H]3O)[C@H]3COC(=O)[C@H]23)OCO4)cc(OC)c1O [ETOPOSIDE] |  |  |  |  |  | 9.8

Further lines, with some results ahead:

Row | IC50 (Plasmepsin V) [µM] | Stability [1] | Stability (Serum) | inhibition [2] | Compound | EC50 (Plasmodium falciparum) [µM] | EC50 (HepG2) [µM]
5 | 48 | Stable | Stable | inactive | CC(C)C[C@H](NC(=O)[C@H](C)N(C)C(=O)[C@H](CCCNC(=N)N)NC(=O)OCc1ccccc1)[C@@H](O)CC(=O)NCCc1ccc(Cl)cc1 | 23.2 | > 50
6 | 0.3 | Stable | Stable | Active | CC(C)C[C@H](NC(=O)[C@H](C)NC(=O)[C@H](CCCNC(=N)N)NC(=O)OCc1ccccc1)[C@@H](O)CC(=O)NCCc1ccc(Cl)cc1 | 15.3 | > 50
7 | > 50 |  |  | inactive | CC(C)C[C@H](NC(=O)[C@H](C(C)C)N(C)C(=O)[C@H](CCCNC(=N)N)NC(=O)OCc1ccccc1)[C@@H](O)CC(=O)NCCc1ccccc1 (Cbz-Arg-[NMeV]-[Sta]-NHPhenethyl) | 5.89 | 
8 | 0.89 | Unstable | Stable | inactive | CC(C)C[C@@H]([C@@H](O)CC(=O)NCCc1ccc(Cl)cc1)N(C)C(=O)[C@H](C)NC(=O)[C@H](CCCNC(=N)N)NC(=O)OCc1ccccc1 | 29.2 | > 50
9 | 5.35 | Stable | Stable | inactive | CC(C)C[C@H](NC(=O)[C@H](C)NC(=O)[C@H](CCCNC(=N)N)NC(=O)OCc1ccccc1)[C@@H](O)CC(=O)N(C)CCc1ccc(Cl)cc1 | 20.3 | > 50
